Assay results: US20140294737A1, “TREATMENT OF RHINITIS” (AMPIO PHARMACEUTICALS, INC., priority 2011, published 2014)

Test system: allergic rhinitis in adult humans
Experiment: Phase Ib randomized, double-blinded, placebo-controlled study of danazol intranasal spray; subject-reported Total Nasal Symptom Score (TNSS)
Format: in vivo, human
Set-up: key to Change in rTNSS, Median / Change in AM rTNSS, Median / Change in iTNSS, Median / Change in AM iTNSS, Median: change in TNSS, sum of four 0–3 symptom scores (0–12)
Procedure: A Phase Ib randomized, double-blinded, placebo-controlled, parallel group study was performed to evaluate the efficacy of danazol for treating allergic rhinitis in adult humans. Briefly, the study was performed as follows.
The subjects were male or female humans, 18-65 years of age, with a history of allergic rhinitis that had been receiving therapy (continuous or intermittent) for more than 1 year.
During a seven-day wash out period (days 1-7), the subjects received no treatment of any type and recorded their symptoms twice a day (in the morning before bathing, consumption of food or beverages or strenuous activities and 12 hours later) using the following scale: • 0=absent (no sign/symptom present) • 1=mild (sign/symptom clearly present, but minimal awareness; easily tolerated) • 2=moderate (definite awareness of sign/symptom that is bothersome but tolerable) • 3=severe (sign/symptom that is hard to tolerate; causes interference with activities of daily living and/or sleeping)
The subjects were randomized into treatment groups (danazol or placebo) after the wash out period (on day 8).
Treatment was begun on day 8 and continued through day 21 (14 days total). During treatment, the subjects again recorded their symptoms twice daily (as described above and before administration of the test medications in the morning) using the above scale. The subjects administered 0.3 ml of one of the test medications, 0.15 ml per nostril, once daily in the morning, immediately after recording their symptoms. The first administration of test medications was supervised by test site personnel. The test medications were 0.1% (w/v) danazol intranasal spray and placebo spray (nonmedicinal components in identical intranasal spray format). Efficacy of the test medications was assessed as follows:
The measures of effectiveness in this study included the subject-reported Total Nasal Symptom Score (TNSS). The TNSS is defined as the sum of the subject-reported symptom scores for the four nasal symptoms: rhinorrhea (runny nose), nasal congestion, nasal itching, and sneezing. Each score is assessed on a severity scale ranging from 0 to 3 as defined above.
The subjects were asked to assess both reflective TNSS (i.e., an evaluation of symptom severity over the past 12 hours prior to the recording of the score) and instantaneous TNSS (i.e., an evaluation of the symptom severity over the last 10 minutes).
The reflective and instantaneous TNSS are defined as the sum of the subject-reported symptom scores for the four nasal symptoms. Each subject recorded the symptom scores in the subject's diary. For each score, information recorded in the diary included the following: • rhinorrhea (runny nose) • nasal congestion • nasal itching • sneezing The severity scale for each symptom evaluation is given above.
Mean reflective (r) and instantaneous (i) subject-reported total nasal symptom scores (TNSS) were calculated for each subject. The mean TNSS is the average of all AM and PM daily scores (each score is ranked on a scale from 0-12) during the baseline (baseline efficacy value) and the treatment period (double-blind efficacy value).
The change in efficacy was calculated as the change in the double-blind value—baseline value as follows: • Change in rTNSS: mean double-blind rTNSS—mean baseline rTNSS • Change in iTNSS: mean double-blind iTNSS—mean baseline iTNSS Student's t-test: mean (SD) difference between treatment groups for the following: • Mean change in (rTNSS/iTNSS) • Mean change in AM (rTNSS/iTNSS) • Mean change in PM (rTNSS/iTNSS) • Mean change in individual symptom scores for each of the four nasal symptoms.
The largest improvements were with itchy nose symptoms (Table 8 and FIG. 6).

[1] = Wilcoxon rank-sum analysis, median, n=10
[2] = instantaneous symptom score 0-3, double-blind minus baseline, mean (SD), n=10
[3] = reflective symptom score 0-3, double-blind minus baseline, mean (SD), n=10

## C#C[C@]1(O)CC[C@H]2[C@@H]3CCC4=Cc5oncc5C[C@]4(C)[C@H]3CC[C@@]21C [Danazol, 17α-pregna-2,4-dien-20-yno[2,3-d]-isoxazol-17β-ol]
[1]
  Change in instantaneous symptom iItchy nose, Median: −1.0
  Change in instantaneous symptom iRunny nose, Median: 0.0
  Change in instantaneous symptom iSneezing, Median: −0.5
  Change in instantaneous symptom iStuffy nose, Median: −0.5
  Change in reflective symptom rItchy nose, Median: −1.0
  Change in reflective symptom rRunny nose, Median: −0.25
  Change in reflective symptom rSneezing, Median: −1.0
  Change in reflective symptom rStuffy nose, Median: 0.0
iTNSS measures, all assessments but sneezing
  efficacy measures showing a larger improvement with danazol than with placebo, instantaneous: 6/7
Instantaneous TNSS, all AM and PM scores, double-blind minus baseline, 0.1% (w/v) intranasal spray once daily, 14 days, mean (SD), n=10
  Mean change in iTNSS: −1.94 (2.68)
Instantaneous TNSS, evening assessment, double-blind minus baseline, mean (SD), n=10
  Mean change in PM iTNSS: −1.42 (2.64)
Instantaneous TNSS, evening, Wilcoxon rank-sum analysis, median, n=10
  Change in PM iTNSS, Median: −1.5
Instantaneous TNSS, morning assessment, double-blind minus baseline, mean (SD), n=10
  Mean change in AM iTNSS: −1.59 (2.36)
Instantaneous TNSS, morning, Wilcoxon rank-sum analysis, median, n=10
  Change in AM iTNSS, Median: −1.5
Instantaneous TNSS, Wilcoxon rank-sum analysis, median, n=10
  Change in iTNSS, Median: −1.75
[2]
  Mean change in instantaneous symptom iItchy nose: −0.70 (0.92)
  Mean change in instantaneous symptom iRunny nose: −0.30 (1.07)
  Mean change in instantaneous symptom iSneezing: −0.50 (0.53)
  Mean change in instantaneous symptom iStuffy nose: −0.44 (0.56)
mean, Student's t-test analysis, vs 1.14 point decrease with placebo
  decrease in instantaneous symptom severity (iTNSS): 1.94 point
mean, Student's t-test analysis, vs 1.16 point decrease with placebo
  decrease in reflective symptom severity (rTNSS): 2.11 point
median, Wilcoxon rank-sum analysis, vs 0.75 point decrease with placebo
  decrease in instantaneous symptom severity (iTNSS): 1.75 point
median, Wilcoxon rank-sum analysis, vs 1.25 point decrease with placebo
  decrease in reflective symptom severity during the PM assessment (rTNSS): 3.25 point
rTNSS measures, all assessments but runny nose symptom
  efficacy measures showing a larger improvement with danazol than placebo, reflective: 6/7
Reflective TNSS, all AM and PM scores, double-blind minus baseline, 0.1% (w/v) intranasal spray 0.3 ml once daily, 14 days, mean (SD), n=10
  Mean change in rTNSS: −2.11 (2.66)
Reflective TNSS, evening assessment, double-blind minus baseline, 0.1% (w/v) intranasal spray once daily, 14 days, mean (SD), n=10
  Mean change in PM rTNSS: −2.39 (2.68)
Reflective TNSS, evening assessment, double-blind minus baseline, 0.1% (w/v) intranasal spray once daily, 14 days, mean (SD), n=10, listed as danazol
  Mean change in PM rTNSS: −2.39
Reflective TNSS, evening, Wilcoxon rank-sum analysis, median, n=10
  Change in PM rTNSS, Median: −3.25
Reflective TNSS, morning assessment, double-blind minus baseline, 0.1% (w/v) intranasal spray once daily, 14 days, mean (SD), n=10
  Mean change in AM rTNSS: −1.62 (2.40)
Reflective TNSS, morning, Wilcoxon rank-sum analysis, median, n=10
  Change in AM rTNSS, Median: −2.0
Reflective TNSS, Wilcoxon rank-sum analysis, median, n=10
  Change in rTNSS, Median: −2.25
[3]
  Mean change in reflective symptom rItchy nose: −0.85 (1.02)
  Mean change in reflective symptom rRunny nose: −0.30 (0.66)
  Mean change in reflective symptom rSneezing: −0.47 (0.71)
  Mean change in reflective symptom rStuffy nose: −0.48 (0.69)
